Assay [1] concerns KP1005 (CTX-M-14). As to the kind of experiment: Potentiation of aztreonam, strain KP1005. Type of assay: cell-based.
Assay [2] has as its system KP1004 (K-2). As to the kind of experiment: Potentiation of aztreonam, strain KP1004. Format: cell-based. Particulars: minimum BLI concentration inhibiting growth with 4 μg/mL aztreonam.
Assay [3] deals with ec308 (SHV-5). As to the kind of experiment: Potentiation of aztreonam, strain ec308. Format: cell-based. Particulars: minimum BLI concentration inhibiting growth with 4 μg/mL aztreonam.
Assay [4] deals with ec302 (TEM-10). In words: Potentiation of aztreonam, strain ec302. Format: cell-based.
Assay [5] deals with KP1009 (CTX-M-15). As to the kind of experiment: Potentiation of tigemonam, strain KP1009. To be noted: minimum BLI concentration inhibiting growth with 4 μg/mL tigemonam.
The target in assay [6] is SHV-12 (Klebsiella pneumoniae, UniProt P0AD64, E235K/G234S/L31Q). In words: Inhibition of nitrocefin cleavage by purified SHV-12. Type of assay: biochemical. To be noted: nitrocefin reporter substrate, purified enzyme; read-out: Ki (SHV-12, NCF). Here is the method:
(§1) Purified enzymes were mixed with various concentrations of inhibitors in reaction buffer and incubated for 10 min at room temperature. Nitrocefin was added and substrate cleavage profiles were recorded at 490 nm every 10 sec for 10 min.

Assay [7] has as its target KPC-2 (Klebsiella pneumoniae, UniProt Q9F663). As to the kind of experiment: Inhibition of nitrocefin cleavage by purified KPC-2. Format: biochemical. Particulars: nitrocefin reporter substrate, purified enzyme; read-out: Ki (KPC-2, NCF). The method, then:
as §1

In assay [8] the test system is ec308 (SHV-5). In words: Potentiation of tigemonam, strain ec308. Type of assay: cell-based. To be noted: minimum BLI concentration inhibiting growth with 4 μg/mL tigemonam.
Assay [9] deals with ECL1002. In words: Potentiation of aztreonam, strain ECL1002. Format: cell-based. To be noted: minimum BLI concentration inhibiting growth with 4 μg/mL aztreonam.
Assay [10] concerns EC1010 (CMY-6). Type of assay: cell-based.
The subject of assay [11] is KP1009 (CTX-M-15). As to the kind of experiment: Potentiation of aztreonam, strain KP1009. Type of assay: cell-based.
In assay [12] the test system is ec302 (TEM-10). As to the kind of experiment: Potentiation of tigemonam, strain ec302. Format: cell-based.
The test system of assay [13] is EC1010 (CMY-6). As to the kind of experiment: Potentiation of aztreonam, strain EC1010. Type of assay: cell-based.
The test system of assay [14] is PAM1032/KPC-2. As to the kind of experiment: Biapenem potentiation in PAM1032/KPC-2 (MexAB-OprM overexpressed). Particulars: BLI potency to decrease biapenem MIC 64-fold, 32 to 0.5 μg/ml; efflux proficient strain. Type of assay: cell-based, Pseudomonas aeruginosa. The method, then:
(§2) Efflux of BLIs from Pseudomonas aeruginosa by the MexAB-OprM efflux pump was also evaluated. […] Due to expression of KPC-2 both strains became resistant to biapenem. […] Potency of BLIs to potentiate biapenem in these strains was determined. […] The ratio of MPC64 values for each BLI in PAM1032/KPC-2 (efflux proficient) and PAM1154/KPC-2 (efflux deficient) was determined to generate the Efflux Index (EI).

Assay [15] has as its system PAM1154/KPC-2. In words: Biapenem potentiation in PAM1154/KPC-2 (MexAB-OprM lacking). Type of assay: cell-based, Pseudomonas aeruginosa. The method, then:
as §2

Consider four compounds from patent US9101638B2, “Boronic acid derivatives and therapeutic uses thereof” (Rempex Pharmaceuticals, Inc., priority 2013, dated 2015).

Where two headings read alike, the source gives them in different places. A value given as a limit tells only on which side of the number the result lay.

Sequence of SHV-12 (P0AD64 22-286 L31Q/G234S/E235K): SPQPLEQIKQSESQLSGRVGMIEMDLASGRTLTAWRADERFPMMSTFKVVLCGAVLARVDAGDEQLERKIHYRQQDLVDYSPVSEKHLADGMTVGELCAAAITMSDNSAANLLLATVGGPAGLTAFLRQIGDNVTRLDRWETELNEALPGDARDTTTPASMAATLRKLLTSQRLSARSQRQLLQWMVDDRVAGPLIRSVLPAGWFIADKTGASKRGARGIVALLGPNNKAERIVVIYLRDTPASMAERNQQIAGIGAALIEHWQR
Sequence of KPC-2 (Q9F663 25-293, looked up, species assumed): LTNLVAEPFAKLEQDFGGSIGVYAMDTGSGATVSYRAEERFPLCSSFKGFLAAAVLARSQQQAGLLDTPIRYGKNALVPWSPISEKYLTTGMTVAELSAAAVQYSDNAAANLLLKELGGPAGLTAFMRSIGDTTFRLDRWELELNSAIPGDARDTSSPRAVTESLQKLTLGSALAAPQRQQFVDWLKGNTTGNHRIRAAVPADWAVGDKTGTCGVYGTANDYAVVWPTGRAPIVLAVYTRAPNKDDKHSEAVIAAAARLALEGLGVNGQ

The term Ki denotes a measure of affinity in units of concentration, obtained from inhibition or displacement. `Nc1nnc(C(=O)N[C@H]2Cc3cccc(C(=O)O)c3OB2O)s1` [Compound 19, (R)-3-(5-amino-1,3,4-thiadiazole-2-carboxamido)-2-hydroxy-3,4-dihydro-2H-benzo[e][1,2]oxaborinine-8-carboxylic acid]: the “AZT MPC4 CTX-M-14 KP1005” value in [1] was “Y (key: X = MIC of less than 1 μg/mL; Y = MIC of 1 μg/mL to 10 μg/mL; Z = MIC of greater than 10 μg/mL)”. Also, the “AZT MPC4 K-2 KP1004” value in [2] is on record as “Y (Y = MIC of 1 μg/mL to 10 μg/mL)”. Moreover, in [3], the “AZT MPC4 SHV-5 ec308” value is “X (X = MIC of less than 1 μg/mL)”. In [4], the “AZT MPC4 TEM-10 ec302” value was “Y (key: X = MIC of less than 1 μg/mL; Y = MIC of 1 μg/mL to 10 μg/mL; Z = MIC of greater than 10 μg/mL)”. The “TIG MPC4 CTX-M-15 KP1009” value in assay [5] was “Y (Y = MIC of 1 μg/mL to 10 μg/mL)”. Moreover, the inhibition constant (Ki) in [6] is less than 1 nM; in assay [7], more than 10 nM. Also, the “TIG MPC4 SHV-5 ec308” value in assay [8] was “X (X = MIC of less than 1 μg/mL)”. In assay [9], the “AZT MPC4 ECL1002” value is “Y (Y = MIC of 1 μg/mL to 10 μg/mL)”. Besides, the “TIG MPC4 CMY-6 EC1010” value in assay [10] was “X (key: X = MIC of less than 1 μg/mL; Y = MIC of 1 μg/mL to 10 μg/mL; Z = MIC of greater than 10 μg/mL)”. Moreover, the “AZT MPC4 CTX-M-15 KP1009” value in assay [11] is given as “Y (key: X = MIC of less than 1 μg/mL; Y = MIC of 1 μg/mL to 10 μg/mL; Z = MIC of greater than 10 μg/mL)”.
Turning to `CN(C)C(=O)C(=O)N[C@H]1Cc2cccc(C(=O)O)c2OB1O` [Compound 9, (R)-3-(2-(dimethylamino)-2-oxoacetamido)-2-hydroxy-3,4-dihydro-2H-benzo[e][1,2]oxaborinine-8-carboxylic acid], the “AZT MPC4 CTX-M-14 KP1005” value in assay [1] was “Y (key: X = MIC of less than 1 μg/mL; Y = MIC of 1 μg/mL to 10 μg/mL; Z = MIC of greater than 10 μg/mL)”. Besides, in [12], the “TIG MPC4 TEM-10 ec302” value is “Z (key: X = MIC of less than 1 μg/mL; Y = MIC of 1 μg/mL to 10 μg/mL; Z = MIC of greater than 10 μg/mL)”. Further, the “AZT MPC4 CMY-6 EC1010” value in assay [13] is given as “Y (key: X = MIC of less than 1 μg/mL; Y = MIC of 1 μg/mL to 10 μg/mL; Z = MIC of greater than 10 μg/mL)”. The “AZT MPC4 K-2 KP1004” value in [2] was “Y (Y = MIC of 1 μg/mL to 10 μg/mL)”. The “AZT MPC4 SHV-5 ec308” value in [3] is on record as “X (X = MIC of less than 1 μg/mL)”. The “AZT MPC4 TEM-10 ec302” value in assay [4] is “Y (key: X = MIC of less than 1 μg/mL; Y = MIC of 1 μg/mL to 10 μg/mL; Z = MIC of greater than 10 μg/mL)”. In assay [5], the “TIG MPC4 CTX-M-15 KP1009” value is listed as “Y (Y = MIC of 1 μg/mL to 10 μg/mL)”. Further, in [7], the Ki is more than 10 nM. Besides, the “TIG MPC4 SHV-5 ec308” value in assay [8] is “Y (Y = MIC of 1 μg/mL to 10 μg/mL)”. Moreover, the “AZT MPC4 ECL1002” value in assay [9] is “Y (Y = MIC of 1 μg/mL to 10 μg/mL)”. For the same compound, in assay [10], the “TIG MPC4 CMY-6 EC1010” value is recorded as “Y (key: X = MIC of less than 1 μg/mL; Y = MIC of 1 μg/mL to 10 μg/mL; Z = MIC of greater than 10 μg/mL)”. Further, the “AZT MPC4 CTX-M-15 KP1009” value in assay [11] was “Y (key: X = MIC of less than 1 μg/mL; Y = MIC of 1 μg/mL to 10 μg/mL; Z = MIC of greater than 10 μg/mL)”.
Regarding `O=C(N[C@H]1Cc2cccc(C(=O)O)c2OB1O)c1cncnc1` [Compound 18, (R)-2-hydroxy-3-(pyrimidine-5-carboxamido)-3,4-dihydro-2H-benzo[e][1,2]oxaborinine-8-carboxylic acid], the “AZT MPC4 CTX-M-14 KP1005” value in assay [1] was “Y (key: X = MIC of less than 1 μg/mL; Y = MIC of 1 μg/mL to 10 μg/mL; Z = MIC of greater than 10 μg/mL)”. Also, the “PAM1032/KPC-2 Biapenem MPC64” value in assay [14] is listed as “Z (Z Greater than 40)”. The “TIG MPC4 TEM-10 ec302” value in assay [12] is listed as “Y (key: X = MIC of less than 1 μg/mL; Y = MIC of 1 μg/mL to 10 μg/mL; Z = MIC of greater than 10 μg/mL)”. The “AZT MPC4 CMY-6 EC1010” value in assay [13] was “Y (key: X = MIC of less than 1 μg/mL; Y = MIC of 1 μg/mL to 10 μg/mL; Z = MIC of greater than 10 μg/mL)”. Besides, in assay [2], the “AZT MPC4 K-2 KP1004” value is “Y (Y = MIC of 1 μg/mL to 10 μg/mL)”. For the same compound, the “AZT MPC4 SHV-5 ec308” value in assay [3] is listed as “Y (Y = MIC of 1 μg/mL to 10 μg/mL)”. Moreover, the “AZT MPC4 TEM-10 ec302” value in assay [4] is given as “X (key: X = MIC of less than 1 μg/mL; Y = MIC of 1 μg/mL to 10 μg/mL; Z = MIC of greater than 10 μg/mL)”. The “TIG MPC4 CTX-M-15 KP1009” value in [5] is on record as “Y (Y = MIC of 1 μg/mL to 10 μg/mL)”. Besides, the inhibition constant Ki in assay [6] is less than 1 nM; in assay [7] it was more than 10 nM. For the same compound, the “PAM1154/KPC-2 Biapenem MPC64” value in assay [15] is recorded as “X (key: X = Less than 10; Y = 10 to 40; Z Greater than 40)”. Moreover, in assay [8], the “TIG MPC4 SHV-5 ec308” value is on record as “Y (Y = MIC of 1 μg/mL to 10 μg/mL)”. In addition, the “AZT MPC4 ECL1002” value in [9] is given as “Y (Y = MIC of 1 μg/mL to 10 μg/mL)”. Besides, the “TIG MPC4 CMY-6 EC1010” value in [10] is listed as “X (key: X = MIC of less than 1 μg/mL; Y = MIC of 1 μg/mL to 10 μg/mL; Z = MIC of greater than 10 μg/mL)”. Besides, the “AZT MPC4 CTX-M-15 KP1009” value in assay [11] is “Y (key: X = MIC of less than 1 μg/mL; Y = MIC of 1 μg/mL to 10 μg/mL; Z = MIC of greater than 10 μg/mL)”.
On to `CN(C)C(=O)CC(=O)N[C@H]1Cc2cccc(C(=O)O)c2OB1O` [Compound 10, (R)-3-(3-(dimethylamino)-3-oxopropanamido)-2-hydroxy-3,4-dihydro-2H-benzo[e][1,2]oxaborinine-8-carboxylic acid], for which, in assay [1], the “AZT MPC4 CTX-M-14 KP1005” value is listed as “Y (key: X = MIC of less than 1 μg/mL; Y = MIC of 1 μg/mL to 10 μg/mL; Z = MIC of greater than 10 μg/mL)”. For the same compound, the “PAM1032/KPC-2 Biapenem MPC64” value in assay [14] is recorded as “Z (Z Greater than 40)”. In addition, the “TIG MPC4 TEM-10 ec302” value in [12] (minimum BLI concentration inhibiting growth with 4 μg/mL tigemonam) is recorded as “Z (Z = MIC of greater than 10 μg/mL)”. Besides, in [13], the “AZT MPC4 CMY-6 EC1010” value is on record as “X (key: X = MIC of less than 1 μg/mL; Y = MIC of 1 μg/mL to 10 μg/mL; Z = MIC of greater than 10 μg/mL)”. The “AZT MPC4 K-2 KP1004” value in assay [2] is reported as “X (X = MIC of less than 1 μg/mL)”. In assay [3], the “AZT MPC4 SHV-5 ec308” value was “Y (Y = MIC of 1 μg/mL to 10 μg/mL)”. In addition, the “AZT MPC4 TEM-10 ec302” value in assay [4] was “Y (key: X = MIC of less than 1 μg/mL; Y = MIC of 1 μg/mL to 10 μg/mL; Z = MIC of greater than 10 μg/mL)”. Moreover, the “TIG MPC4 CTX-M-15 KP1009” value in [5] was “X (X = MIC of less than 1 μg/mL)”. Besides, the Ki in assay [6] was less than 1 nM; in assay [7] it was more than 10 nM. For the same compound, in assay [15] (BLI potency to decrease biapenem MIC 64-fold, 32 to 0.5 μg/ml, efflux deficient strain), the “PAM11154/KPC-2 Biapenem MPC64” value is on record as “Y (Y = 10 to 40)”. Further, in assay [8], the “TIG MPC4 SHV-5 ec308” value is “Y (Y = MIC of 1 μg/mL to 10 μg/mL)”. Further, in assay [9], the “AZT MPC4 ECL1002” value is reported as “Y (Y = MIC of 1 μg/mL to 10 μg/mL)”. In addition, the “TIG MPC4 CMY-6 EC1010” value in [10] is listed as “X (key: X = MIC of less than 1 μg/mL; Y = MIC of 1 μg/mL to 10 μg/mL; Z = MIC of greater than 10 μg/mL)”. In addition, in assay [11], the “AZT MPC4 CTX-M-15 KP1009” value is listed as “X (key: X = MIC of less than 1 μg/mL; Y = MIC of 1 μg/mL to 10 μg/mL; Z = MIC of greater than 10 μg/mL)”.
